# Measurements: US20060110456A1, “Method for biocidal and/or biostatic treatment and compositions therefor” (NATIONAL UNIVERSITY OF SINGAPORE, priority 2004, published 2006)
# Entries after “also recorded” stand apart in the source; their conditions may differ. Counter-ions that a name gives are not always drawn. Like-named read-outs stand apart in the source and are kept apart here.
# Legend:
# [1] = tested on: marine bacteria (26 strains); assay: Disk inhibition assay; type: cell-based, marine bacteria isolated from Singapore fouling communities; details: for zone of inhibition at 25 µg/disc: 25 μg per disc; for zone of inhibition at 50 µg/disc: 50 μg per disc
# Procedure, shortened: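 Tablets or capsule powders suspended in sterile water at 2 mg ml^−1 and loaded onto disks; antibiotic discs (Amp, Ery, Str, Tet) served as comparison. Disks placed on swabbed lawns on Marine Agar, incubated overnight in the dark at 30° C. Zone of clearing diameter measured by calipers; three replicates on three occasions.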
# [2] = tested on: Balanus amphitrite cyprids; assay: whole plant or invertebrate; details: for Prevention of settlement of barnacle cyprids: crude rank, best (1) to worst (8)
# Experimental: Pharmaceuticals from the respective manufacturers were treated in the following way. A pill containing a known amount of active ingredient (as stated in product information) was ground in a mortar and pestle and a suspension of 2 mg ml^−1 generated in de-ionized water. This stock solution is stored at −20° C. in 4 ml amber screw cap vials. For the bioassays, 250 ul of stock solution is added to 10 ml of 1 um filtered seawater. This suspension was then sonicated for 10 minutes. Serial dilutions of this 50 μg ml^−1 seawater solution, or suspension, with seawater was done to generate the required range of concentrations.
# This method is now standard practice for many antifouling screening of novel compounds.
# Barnacle larvae from field-collected adults were reared on an algal mixture of 1:2:2 v/v of Rhodomonas salina, Tetraselmis suecica and Chaetoceros muelleri at 25° C., at approximately 5×10^5 cells per ml density. On this regime, larvae metamorphose to cyprids in 5 days.
# Test solutions were made up to twice the required final concentration. 1 ml of test solution was added into each well, and cyprids were transferred into each well in 1 ml of seawater. Assays were done in triplicate. After 24 hours, larvae that had attached and metamorphosed were enumerated and the result expressed as percentage settlement. Larvae not attached were scored as not settled.
# The Therapeutic Ratio, or LC50/EC50, is a way of assessing the effectiveness of the compound in relation to its toxicity. […] LC50 and EC50 estimates and the therapeutic ratio should be considered as working values providing an estimation of potency, rather than as absolutes.
# [3] = tested on: hard fouling (barnacles, serpulids, spirorbids); assay: Field testing of coated rods; type: in vivo; parameters: Total hard fouling, difference in mean cover (%), drug vs control / Barnacles, difference in mean cover (%), drug vs control: tested at 25 µg/ml of coating; Serpulids, difference in mean cover (%), drug vs control: tested at 25 µg/ml of coating mix; details: for Overall performance in field assay: crude rank, best (1) to worst (8); for Barnacles, difference in mean cover (%), drug vs VC50 / Serpulids, difference in mean cover (%), drug vs VC50 / Spirorbids, difference in mean cover (%), drug vs VC50 / Total hard fouling, difference in mean cover (%), drug vs VC50: drug + VC50 rods vs VC50 control; for Barnacles, difference in mean cover (%), drug vs control / Serpulids, difference in mean cover (%), drug vs control / Spirorbids, difference in mean cover (%), drug vs control / Total hard fouling, difference in mean cover (%), drug vs control: drug + VC50 rods vs uncoated blank control; for Barnacles Mean cover (%) / Serpulids Mean cover (%) / Spirorbids Mean cover (%) / Total hard fouling Mean cover (%): rods coated with drug + VC50, field test; for Total hard fouling Mean cover (%): percentage cover within 6 mm×50 mm transect
# Experimental: Fouling on rods occurs more rapidly than on flat panels, enabling rapid assessment of the performance of coatings.
# 6 mm diameter glass rods were cut to 150 mm length and prepared prior to coating by baking in a furnace at 150° C. for 24 hours and then cooling in a dessicator.
# All pharmaceuticals were obtained in commercially available form. All tablets were reduced to fine powder with a mortar and pestle, and capsules were opened to extract the contents. The amount of drug powder required to attain the desired concentrations for all tests was calculated from product dosage information and then measured by weight on a high-resolution electronic balance. This was added to the coating and mixed thoroughly prior to application to obtain the concentration of 25 ug active ingredient per ml of coating mix.
# The commercial antifouling product used to benchmark field experiments was VC Offshore with Teflon® manufactured by International Coatings.
# For our experiments, a reduced copper coating (“VC50”) was prepared by mixing approximately 20 g of #YBA779 into 100 ml of #YBA707. The prepared coating was then allowed to stand so that bubbles from the mixing process dissipated. 15 ml centrifuge tubes were filled with 10 mls of prepared coating. Prepared glass rods were then immersed in the coating to a height of 100 mm and then suspended on a frame to air dry until coating cured.
# Five replicate rods were tested for every experimental treatment, including controls. Two sets of controls were used, an uncoated blank control and a VC50 control without pharmaceutical additives. Rod were randomly arrayed on plastic vexar mesh attached to PVC frames and suspended at a depth of 10 cm from the water surface. […] Rods were examined visually weekly for the duration of testing, which typically lasts between 6 to 10 weeks. All fouling was scored as percentage cover of each category within a 6 mm×50 mm transect on each rod.
# [4] = crude rank, best (1) to worst (8)
# [5] = drug at 25 ug per ml of VC50 coating
compound,measurement,setting,value
"CNCCC(Oc1ccc(C(F)(F)F)cc1)c1ccccc1 (centres unmarked) [PZC, fluoxetine hydrochloride]",Activity against the three Vibrio strains tested,[1],exhibited activity against the three Vibrio strains tested
same,Antibiotic activity against marine bacteria,[1],strongest activity
same,Number of strains inhibited out of 26 strains,[1],23
same,Strains showing no inhibition (of 26),[1],only strain 6 was not inhibited
same,Antibiotic activity against marine bacteria,[1]; [4],2
same,zone of inhibition at 25 µg/disc,[1]; strain 1 (Rhodovulum),< 5 mm
same,zone of inhibition at 50 µg/disc,[1]; strain 1 (Rhodovulum),5 to 9 mm
same,zone of inhibition at 25 µg/disc,[1]; strain 2 (Erythrobacter),10 to 19 mm
same,zone of inhibition at 50 µg/disc,[1]; strain 2 (Erythrobacter),10 to 19 mm
same,zone of inhibition at 25 µg/disc,[1]; strain 3 (Erythrobacter),10 to 19 mm
same,zone of inhibition at 50 µg/disc,[1]; strain 3 (Erythrobacter),10 to 19 mm
same,zone of inhibition at 25 µg/disc,[1]; strain 4 (Bacillus),10 to 19 mm
same,zone of inhibition at 50 µg/disc,[1]; strain 4 (Bacillus),20 to 29 mm
same,zone of inhibition at 25 µg/disc,[1]; strain 6 (Vibrio),< 5 mm
same,zone of inhibition at 50 µg/disc,[1]; strain 6 (Vibrio),< 5 mm
same,zone of inhibition at 25 µg/disc,[1]; strain 7 (Vibrio),< 5 mm
same,zone of inhibition at 50 µg/disc,[1]; strain 7 (Vibrio),10 to 19 mm
same,zone of inhibition at 25 µg/disc,[1]; strain 8 (Bacillus),10 to 19 mm
same,zone of inhibition at 50 µg/disc,[1]; strain 8 (Bacillus),20 to 29 mm
same,zone of inhibition at 25 µg/disc,[1]; strain 9 (Bacillus),10 to 19 mm
same,zone of inhibition at 50 µg/disc,[1]; strain 9 (Bacillus),10 to 19 mm
same,zone of inhibition at 25 µg/disc,[1]; strain 10 (Halobacillus),10 to 19 mm
same,zone of inhibition at 50 µg/disc,[1]; strain 10 (Halobacillus),10 to 19 mm
same,zone of inhibition at 25 µg/disc,[1]; strain 11 (Pseudomonas),10 to 19 mm
same,zone of inhibition at 50 µg/disc,[1]; strain 11 (Pseudomonas),20 to 29 mm
same,zone of inhibition at 25 µg/disc,[1]; strain 12 (Gordonia),10 to 19 mm
same,zone of inhibition at 50 µg/disc,[1]; strain 12 (Gordonia),20 to 29 mm
same,zone of inhibition at 25 µg/disc,[1]; strain 13 (Bacillus),10 to 19 mm
same,zone of inhibition at 50 µg/disc,[1]; strain 13 (Bacillus),10 to 19 mm
same,zone of inhibition at 25 µg/disc,[1]; strain 14 (Vibrio),10 to 19 mm
same,zone of inhibition at 50 µg/disc,[1]; strain 14 (Vibrio),10 to 19 mm
same,zone of inhibition at 25 µg/disc,[1]; strain 16 (Pseudoalteromonas),5 to 9 mm
same,zone of inhibition at 50 µg/disc,[1]; strain 16 (Pseudoalteromonas),10 to 19 mm
same,zone of inhibition at 25 µg/disc,[1]; strain 17 (Gordonia),10 to 19 mm
same,zone of inhibition at 50 µg/disc,[1]; strain 17 (Gordonia),20 to 29 mm
same,zone of inhibition at 25 µg/disc,[1]; strain 18 (Microbacterium),10 to 19 mm
same,zone of inhibition at 50 µg/disc,[1]; strain 18 (Microbacterium),10 to 19 mm
same,zone of inhibition at 25 µg/disc,[1]; strain 19 (Erythrobacter),10 to 19 mm
same,zone of inhibition at 50 µg/disc,[1]; strain 19 (Erythrobacter),20 to 29 mm
same,zone of inhibition at 25 µg/disc,[1]; strain 20,10 to 19 mm
same,zone of inhibition at 50 µg/disc,[1]; strain 20,10 to 19 mm
same,zone of inhibition at 25 µg/disc,[1]; strain 21,5 to 9 mm
same,zone of inhibition at 50 µg/disc,[1]; strain 21,10 to 19 mm
same,zone of inhibition at 25 µg/disc,[1]; strain 22,10 to 19 mm
same,zone of inhibition at 50 µg/disc,[1]; strain 22,10 to 19 mm
same,zone of inhibition at 25 µg/disc,[1]; strain 24,5 to 9 mm
same,zone of inhibition at 50 µg/disc,[1]; strain 24,10 to 19 mm
same,zone of inhibition at 25 µg/disc,[1]; strain 26,5 to 9 mm
same,zone of inhibition at 50 µg/disc,[1]; strain 26,5 to 9 mm
same,zone of inhibition at 25 µg/disc,[1]; strain 27,20 to 29 mm
same,zone of inhibition at 50 µg/disc,[1]; strain 27,20 to 29 mm
same,zone of inhibition at 25 µg/disc,[1]; strain 28,10 to 19 mm
same,zone of inhibition at 50 µg/disc,[1]; strain 28,10 to 19 mm
same,zone of inhibition at 25 µg/disc,[1]; strain 29,10 to 19 mm
same,zone of inhibition at 50 µg/disc,[1]; strain 29,20 to 29 mm
same,zone of inhibition at 25 µg/disc,[1]; strain 30,10 to 19 mm
same,zone of inhibition at 50 µg/disc,[1]; strain 30,10 to 19 mm
same,Prevention of settlement of barnacle cyprids,[2],7
same,Overall performance in field assay,[3],6
same,"Barnacles, difference in mean cover (%), drug vs VC50",[3],−14%
same,"Serpulids, difference in mean cover (%), drug vs VC50",[3],−1.67%
same,"Spirorbids, difference in mean cover (%), drug vs VC50",[3],−7.67%
same,"Total hard fouling, difference in mean cover (%), drug vs VC50",[3],−23.37%
same,"Barnacles, difference in mean cover (%), drug vs control",[3],−78.34%
same,"Serpulids, difference in mean cover (%), drug vs control",[3],−6.67%
same,"Spirorbids, difference in mean cover (%), drug vs control",[3],+3.33%
same,"Total hard fouling, difference in mean cover (%), drug vs control",[3],−81.67%
same,Reduction of total hard fouling cover compared to VC50 alone,[3]; [5],~24%
same,Effect of addition of drug on antifouling performance of VC50 coating (total hard fouling),"[3]; drug at 25 ug per ml of VC50 coating, in words",did not significantly improve antifouling performance
same,Barnacles Mean cover (%),[3],9.33%
same,Serpulids Mean cover (%),[3],0%
same,Spirorbids Mean cover (%),[3],9%
same,Total hard fouling Mean cover (%),[3],18.33%
"Cc1nccn1CC1CCc2c(c3ccccc3n2C)C1=O (centres unmarked) [ZFN, ondansetron hydrochloride]",Antibiotic activity against marine bacteria,"[1]; 25 or 50 μg per disc, in words",did not have any appreciable antibiotic activity against marine bacteria
same,Antibiotic activity against marine bacteria,[1]; [4],8
same,IC50,"[2]; Amphibalanus amphitrite, 24 h, read-out: ED50",0.242 µg/mL
same,Prevention of settlement of barnacle cyprids,[2],5
same,"Total hard fouling, mean cover","[3]; coated rods, 25 ug active ingredient per ml of VC50 coating",10%
same,Performance against spirorbid polychaetes,"[3]; coated rods, in words",exclude spirorbid settlement
same,Overall performance in field assay,[3],2
same,"Barnacles, difference in mean cover (%), drug vs VC50",[3],−26.33%
same,"Serpulids, difference in mean cover (%), drug vs VC50",[3],0%
same,"Spirorbids, difference in mean cover (%), drug vs VC50",[3],−18.66%
same,"Total hard fouling, difference in mean cover (%), drug vs VC50",[3],−45%
same,"Barnacles, difference in mean cover (%), drug vs control",[3],-89.3%
same,"Serpulids, difference in mean cover (%), drug vs control",[3],−1.66%
same,"Spirorbids, difference in mean cover (%), drug vs control",[3],+3%
same,"Total hard fouling, difference in mean cover (%), drug vs control",[3],−88%
same,Less spirorbid cover than VC50,[3]; [5],18.7%
same,Reduction in barnacle cover compared to VC50,[3]; [5],26.3%
same,Effect of addition of drug on antifouling performance of VC50 coating (total hard fouling),"[3]; drug at 25 ug per ml of VC50 coating, in words, hydrochloride",increased the antifouling properties of VC50 coating significantly; also recorded: significantly improved the performance of VC50 coating
same,Barnacles Mean cover (%),[3],3.67%
same,Serpulids Mean cover (%),[3],1.67%
same,Spirorbids Mean cover (%),[3],4.67%
same,Total hard fouling Mean cover (%),[3],10%
